Reference: patent US8653283B2, “Anticancer agents” (The Regents of The University of California, priority 2009, dated 2014)

What was measured:
[1] = mouse, in vivo
[2] = system: neuroblastoma cells (Neuro2a); experiment: Inhibition of mitosis; assay type: cell-based; settings: by inhibiting the exit from anaphase
renal cancers = experiment: NCI-60 human tumor cell line screen, single dose; assay type: cell-based; settings: dosed at 10 μM, single dose NCI-60
HCT-116 cells [3] = experiment: Cell cycle effects by three-color confocal fluorescence microscopy; assay type: cell-based, human
Text: Images in a) and b) depict live cells. c) A confocal fluorescent image indicating the effects of 1 has on the cell structure. Cells treated as in a) were fixed with 0.1% formalin and stained for their DNA content with SYTO-60 (false colored in blue) (Wlodkowic et al., Cytometry A, 73:496-507 (2008)), actin with FITC-phalloidin (green) (Verderame et al., Proc Natl Acad Sci USA, 77:6624-6628 (1980)), and microtubules with BODIPY FL-paclitaxel (red) (Bicamumpaka et al., Int J Mol Med, 2:161-165 (1998)). For each experiment, HCT-116 cells were cultured to 10^6 cells/cm^2 in a 35 mm poly-D-lysine coated glass-bottom dish and treated with 1 mL of 10 μM 1 in Dulbecco's modified essential medium (DMEM) containing 10% fetal bovine serum (FBS), 100 U/mL penicillin-G and 100 μg/mL streptomycin.
The effects of 1 on the cell cycle were also evaluated. HCT-116 cells cultured in DMEM were treated 1 h before the onset of mitosis with 10 μM 1 in DMEM. After 12 h (several hours after the completion of mitosis), the cells were fixed for 5 min with 0.5% formalin and 0.1% glutaraldehyde in PBS pH 7.2, washed extensively with PBS pH 7.2, treated with a cocktail of fluorescent probes to visualize DNA, actin, and microtubules and examined using three-color confocal fluorescence microscopy. […]

HCT-116 cells [4] = experiment: Cellular uptake and subcellular localization by fluorescence microscopy; assay type: cell-based, human; settings: live HCT-116 cells, 10 μM, time lapse over 24 h
Procedure: HCT-116 cells (ATCC CCL-247) were cultured in Dulbecco's modification of Eagle's medium (DMEM) with 4.5 g L^−1 glucose, […], and 5% heat inactivated fetal calf serum (FCS) in glass-bottom dishes. Fluorescent images were collected on a Leica (Wetzlar, Germany) DMI6000 inverted confocal microscope with a Yokogawa (Tokyo, Japan) spinning disk confocal head, Orca ER High Resolution B&W Cooled CCD camera (6.45 μm/pixel at 1×) (Hamamatsu, Sewickley, Pa.), Plan Apochromat 40×/1.25 na and 63×/1.4 na objective, and a Melles Griot (Carlsbad, Calif.) Argon/Krypton 100 mW air-cooled laser for 488, 568, and 647 nm excitations. Confocal z-stacks were acquired in all experiments. […]
Cellular uptake and localization of 1 in HCT-116 tumor cells was then evaluated using fluorescence microscopy. […] HCT-116 cells were treated with 10 μM 1 in DMEM containing 10% FCS, 100 U/mL penicillin-G, and 100 μg/mL streptomycin and analyzed by fluorescence microscopy. […] Within 6-12 h, fluorescence from 1 concentrated within vesicles surrounding the nucleus and remained in these structures (FIG. 4b). […]
The cellular uptake of localization of 1 in HCT-116 tumor cells was then evaluated using fluorescence microscopy. […] HCT-116 cells were treated with 10 μM 1 in DMEM containing 10% FCS, 100 U/mL penicillin-G and 100 μg/mL streptomycin and analyzed by fluorescence microscopy. […]

Bacillus subtilis 6633 = experiment: Minimum inhibitory concentration (MIC) assay; assay type: cell-based; settings: Bacillus subtilis 6633, 37° C. for 18 h, no visible bacterial growth, duplicates
Procedure: Minimum Inhibitory Concentration (MIC) Assay of Spirohexenolide A (1), using Bacillus subtilis 6633.
Spirohexenolide A (1) in dimethyl sulfoxide (DMSO) was diluted to 10, 15, 30, 60, 120, 250, 500, and 1000 μg/mL stocks in tryptic soy broth with a final concentration of 1% DMSO. B. subtilis, cultured for 18 h at 37° C. in tryptic soy broth, was inoculated at 1/10000 to a final volume of 200 μL per well on a 96 well plate and then treated with 2 μL of a stock solution of 1 (10, 15, 30, 60, 120, 250, 500, and 1000 μg/mL in tryptic soy broth containing 1% DMSO). […] The compound was tested in duplicates.

[5] = system: NCI-60 human tumor cell line; experiment: NCI-60 human tumor cell line screen, multiple dose / dose-response; assay type: cell-based
[6] = system: human colon tumor HCT-116 cell line; settings: for GI50: HCT-116 cells, MTT assay, in house
[7] = system: breast cancer cells (HeLa); experiment: Inhibition of mitosis; assay type: cell-based; settings: by inhibiting the exit from anaphase
prostate = experiment: NCI-60 human tumor cell line screen, single dose; assay type: cell-based; settings: dosed at 10 μM, single dose NCI-60
melanoma = experiment: NCI-60 human tumor cell line screen, single dose; assay type: cell-based; settings: dosed at 10 μM, single dose NCI-60
[8] = biological target: T1, human migration inhibitory factor (hMIF) (Homo sapiens, UniProt P14174); experiment: Anti-IAF tag immunoprecipitation, LC-MS/MS identification and Western blot; assay type: binding; settings: HCT-116 cell lysate, ~12 kDa band
T1 construct: confirmed the presence of hMIF in the immunoprecipitated fraction of HCT-116 cell lysate; endogenous in cells; host or cells: HCT-116 cell lysate
T1 sequence (P14174 2-115 limits assumed): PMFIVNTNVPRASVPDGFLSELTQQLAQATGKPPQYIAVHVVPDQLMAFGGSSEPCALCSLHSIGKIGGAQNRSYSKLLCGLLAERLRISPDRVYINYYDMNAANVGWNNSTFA
Text: A) Anti-IAF immunoprecipitation studies identify a ˜12 kDa band. Lane L1, L2 and L3 depict HCT116 cell lysate, an IAF dye elution (bands correspond to fragments of the anti-IAF mAb) and glycine wash, respectively. The ˜12 kDa band was identified in the glycine wash. B) Trypsin-digest LC-MS/MS analysis identified three peptides that overlapped with the hMIF protein (shown in red). C) Western blot analysis using a mouse anti-MIF mAb confirmed the presence of hMIF in the immunoprecipitated fraction of HCT-116 cell lysate, as well as in E. coli lysates bearing recombinanthMIF. Arrow denotes the position of hMIF. The upper bands arose from the mouse anti-IAF mAb used in this experiment (background).
Attention was then turned to screening for proteins that bind to the spirohexenolides. Using the affinity properties of the IAF probe 4, we deployed an anti-IAF tag immunoprecipitation protocol to isolate a 12 kDa band (Lane L3 in FIG. 9A). […] Western blot analysis (FIG. 9C) confirmed hMIF the identification of hMIF.

## spirohexenolide A
[1]
  single dose producing toxicity: 6 to 10 mg/kg
[2]
  inhibition of mitosis: inhibit mitosis
Renal cancers
  inhibition: 95%
HCT-116 cells [3]; 10 μM, treated 1 h before onset of mitosis, fixed after 12 h
  effect on the cell cycle: induced cell cycle arrest during mitosis
HCT-116 cells [3]; colon cancer cells (HCT111), by inhibiting the exit from anaphase
  inhibition of mitosis: inhibit mitosis
HCT-116 cells [4]
  cell phenotype after treatment: characteristic apoptotic phenotype
Bacillus subtilis 6633
  MIC: 12.25 µM
[5]; leukemia (CCRF-CEM, MOLT-4, RPMI-8226), lung cancer (HOP-92), colon cancer (SW-629) cell lines
  activity (GI50) by cell line: enhanced activity
[5]; leukemia, renal cancer, and melanoma cell lines
  sensitivity in dose-response assays: selective sensitivity
[6]
  IC50: 0.5 µM
  GI50: 36 ± 5.1 µM
[7]
  inhibition of mitosis: inhibit mitosis
prostate
  inhibition: 85%
melanoma
  inhibition: 96%

## spirohexenolide B
[6]
  GI50: 61.2 ± 7.8 µM

## CC1=C[C@]2(C)/C=C(C)/C=C/C[C@@H](OC(=O)CCC(=O)NCCCCCCNC(=O)Cc3cc(=O)oc4cc(N(C)C)ccc34)/C=C3C=C/C(=C4\C(=O)O[C@]2(C[C@@H]1C)C4=O)OC/3 [probe 4]
[8]
  protein isolated by the probe: human migration inhibitory factor (hMIF)

## CC1=C[C@]2(C)/C=C(C)/C=C/C[C@@H](OC(=O)CCCn3cc(CNC(=O)Cc4cc(=O)oc5cc(N(C)C)ccc45)nn3)/C=C3C=C/C(=C4\C(=O)O[C@]2(C[C@@H]1C)C4=O)OC/3 [probe 3]
HCT-116 cells [4]
  cell phenotype after treatment: characteristic apoptotic phenotype
